# From patent US20240300977A1, “INHIBITORS OF DNA-DEPENDENT PROTEIN KINASE AND COMPOSITIONS AND USES THEREOF” (Intellia Therapeutics, Inc., priority 2021, published 2024)
# Test system: T cells
# Assay: HD3 TCR insertion within TRAC in T cells, flow cytometry
# Assay type: cell-based, human
# Conditions: Spy Cas9 + Compound 4, HD3 TCR AAV, day 7
# Description: 48 hours post-activation, T cells were harvested, centrifuged at 500 g for 5 min, and resuspended at a concentration of 6.41×10^5 T cells/mL in T cell plating media (TCPM): a serum-free version of TCGM containing 400 U/mL recombinant human interleukin-2 (Peprotech, Cat. 200-02), 10 ng/mL recombinant human interleukin 7 (Peprotech, Cat. 200-07), and 10 ng/mL recombinant human interleukin 15 (Peprotech, Cat. 200-15). 50 μL of T cells in TCPM (3.2×10^4 T cells) were added per well to be treated in flat-bottom 96-well plates.
# LNPs were generated as described in Example 1 at a ratio of 50/38.5/10/1.5 (Lipid A/cholesterol/DSPC/PEG2k-DMG).
# Mix “A” was serially diluted 1:2 in TCTM, and mixed 1:1 by volume with mix “B”. 25 μL of the resulting solution was added to 3.2×10^4 T cells in 96-well plates.
# Next, a repair template in the form of an adeno-associated virus (AAV) encoding the HD3 TCR (SEQ ID NO: 18 was diluted in TCTM to 3.84×10^11 genome copies/mL in the presence or absence of Compound 4 diluted to 2 μM. 25 μL of the resulting solution was added to T cells that were treated with LNPs in the prior step. To enable editing assessments by NGS without the interference of repair templates, an arm of this experiment received 25 μL of TCTM with or without Compound 4 diluted to 2 μM in the absence of AAVs.
# Following the addition of LNPs, repair templates and Compound 4, T cells were incubated at 37° C. for 48 hours, at which time T cells were centrifuged at 500 g for 5 min, resuspended in 200 μL of TCGM and returned to the incubator.
# Also on day 4 post-treatment, cells that received AAV templates were mixed and sub-cultured at a 1:4 ratio (v/v) in TCGM. On day 7 post-treatment, cells that received AAV templates were evaluated by flow cytometry.
# On day 7 post-LNP treatment, 50 μL of cells were transferred to U-bottom 96-well plates and spun down for 5 min at 500 g. The supernatant was discarded, cells were resuspended in 100 μL of FACS buffer containing Viakrome 808 (Beckman C., Cat. C36628) (1:100), PC5.5 anti-CD3 (Biolegend, Cat. 317336) (1:200), BV421 anti-CD4 (Biolegend, Cat. 317434) (1:100), BV785 anti-CD8 (Biolegend, Cat. 301046) (1:100), and anti-V07.2 (Beckman C., IM3604) (1:50) and stained for 30 min at 4° C. in the dark. Cells were washed once with 200 μL of FACS buffer, resuspended in 100 μL of FACS buffer and processed on a Cytoflex LX flow cytometer.
structure (smiles),measurement,setting,value
"Cc1cc2ncnn2cc1Nc1ncc2c(n1)n(C1CCC3(CC1)CC3)c(=O)n2C [Compound 4, 7-methyl-2-((7-methyl-[1,2,4]triazolo[1,5-a]pyridin-6-yl)amino)-9-(spiro[2.5]octan-6-yl)-7,9-dihydro-8H-purin-8-one]",Mean CD3^+ Vβ7.2^+ T Cells %,sgRNA 0 μg/mL,0.79%
same,Mean CD3^+ Vβ7.2^+ T Cells %,sgRNA 0.026 μg/mL,35.20%
same,Mean CD3^+ Vβ7.2^+ T Cells %,sgRNA 0.052 μg/mL,44.50%
same,Mean CD3^+ Vβ7.2^+ T Cells %,sgRNA 0.104 μg/mL,52.60%
same,Mean CD3^+ Vβ7.2^+ T Cells %,sgRNA 0.209 μg/mL,56.10%
same,Mean CD3^+ Vβ7.2^+ T Cells %,sgRNA 0.418 μg/mL,53.80%
same,Mean CD3^+ Vβ7.2^+ T Cells %,sgRNA 0.835 μg/mL,53.30%
same,Mean CD3^+ Vβ7.2^+ T Cells %,sgRNA 1.67 μg/mL,49.65%
